The source of these data is patent US11059815B2, “Synthesis of small molecule histone deacetylase 6 degraders, compounds formed thereby, and pharmaceutical compositions containing them” (Wisconsin Alumni Research Foundation, priority 2018, dated 2021).

For the assay, the target named is T1, HDAC6 (Homo sapiens, UniProt Q9UBN7).
T1 construct: endogenous in cells; host or cells: MM1S (ATCC CRL-2974)
T1 sequence (Q9UBN7 1-1215): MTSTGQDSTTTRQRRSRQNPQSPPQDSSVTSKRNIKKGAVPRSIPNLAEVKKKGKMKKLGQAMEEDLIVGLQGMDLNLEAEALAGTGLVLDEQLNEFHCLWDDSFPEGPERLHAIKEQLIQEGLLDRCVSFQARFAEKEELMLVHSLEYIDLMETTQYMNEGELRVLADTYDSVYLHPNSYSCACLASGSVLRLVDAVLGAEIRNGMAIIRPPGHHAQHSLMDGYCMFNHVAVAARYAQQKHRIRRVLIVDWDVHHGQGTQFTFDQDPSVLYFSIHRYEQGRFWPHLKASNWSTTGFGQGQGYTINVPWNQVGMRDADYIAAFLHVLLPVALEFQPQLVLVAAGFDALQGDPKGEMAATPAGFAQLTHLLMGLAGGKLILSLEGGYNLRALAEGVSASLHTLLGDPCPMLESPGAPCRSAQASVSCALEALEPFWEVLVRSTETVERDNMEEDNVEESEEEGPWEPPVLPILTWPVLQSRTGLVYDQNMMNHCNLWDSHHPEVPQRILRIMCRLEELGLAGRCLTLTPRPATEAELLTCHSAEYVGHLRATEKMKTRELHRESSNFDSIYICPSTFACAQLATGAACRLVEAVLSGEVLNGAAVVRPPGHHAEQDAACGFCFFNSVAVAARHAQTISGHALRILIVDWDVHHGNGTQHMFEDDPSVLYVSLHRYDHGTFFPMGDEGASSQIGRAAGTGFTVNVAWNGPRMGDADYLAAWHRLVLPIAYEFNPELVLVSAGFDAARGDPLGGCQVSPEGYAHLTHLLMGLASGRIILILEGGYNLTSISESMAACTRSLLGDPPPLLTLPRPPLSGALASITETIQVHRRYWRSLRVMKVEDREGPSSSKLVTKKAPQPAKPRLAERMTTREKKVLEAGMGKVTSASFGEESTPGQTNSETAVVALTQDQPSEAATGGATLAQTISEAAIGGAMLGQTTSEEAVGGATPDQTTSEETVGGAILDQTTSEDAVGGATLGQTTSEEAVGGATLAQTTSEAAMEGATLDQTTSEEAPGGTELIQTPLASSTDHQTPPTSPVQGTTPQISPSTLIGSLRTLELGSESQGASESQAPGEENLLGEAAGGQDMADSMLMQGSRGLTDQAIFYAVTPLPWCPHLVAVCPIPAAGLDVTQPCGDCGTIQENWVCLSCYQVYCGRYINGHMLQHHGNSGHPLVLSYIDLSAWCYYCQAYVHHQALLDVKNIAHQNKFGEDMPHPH
Kind of assay: In-cell ELISA of HDAC6 protein level in MM1S cells. Type of assay: cell-based. As to conditions: 6 h; for inhibition at 0.01 µM: n=3, read-out: Degradation (%) 10 nM; for inhibition at 0.1 µM: n=3, read-out: Degradation (%) 100 nM. Here is the method: FIG. 9 is a histogram depicting the results of screening of compounds for HDAC6 degradation activity by in-cell ELISA. MM1S cells were treated with compounds at 100 nM (blue bars) or 10 nM (red bars) for 6 h. Data was normalized to vehicle (DMSO)-treated group and the bar graph represents as mean of relative HDAC6 protein level (n=3) with ±SD as error bar. Statistical significance was analyzed by one-way ANOVA. Not significant (ns) P>0.05, *P≤0.05, **P≤0.01, ***P≤0.001, ****P≤0.0001.
FIG. 11 is a graph depicting dose response of selected degrader candidates. MM1S cells were treated for 6 h and analyzed by in-cell ELISA. Data was normalized to vehicle (DMSO)-treated group and dot plot represented as mean relative expression (n=3) with ±SD as error bar. Nonlinear fitting of inhibitor concentration vs. response (three parameters) was generated by GraphPad Prism with R2 from 0.97 to 0.99.
FIG. 15 is a histogram depicting relative HDAC6 expression as a function of linker length for compounds 3a through 3k as described in the Examples section, Part 2. Human MM1S cells were treated with 100 nM degraders for 6 hours and analyzed by in-cell ELISA assay.
FIG. 17 is a dose-response curve for degraders 3j (n=1), 3k (n=12) and 2, at concentrations from 1 nM to 300 nM for 4 h in MM1S. See the Examples, Part 2.
To screen the new series of degraders, an in-cell ELISA assay was developed and validated. The compounds were treated at 100 nM and 10 nM in MM1S cells for 6 h. Resulting cells were then fixed and analyzed by in-cell ELISA. […] Degraders including 1 at 100 nM degraded 73.5% to 85.0% of HDAC6 with minor difference. At 10 nM concentration of compounds, obvious structure-activity-relationship (SAR) was observed. […] For example, 12d, 12h, 12i, 12o and 12p all achieved about 70% degradation. Among the C4-linked series, 12d with medium length linker (5+1) achieved most degradation in sub-series 12a-e (m=1). […] Among C5-linked series, the potency of sub-series 12l-p (m=1) increased with the linker length. […] It appeared that both the distance and linking positions contributed to the degradation efficiency. The rigid triazole ring in the middle of the linker likely modulated the plasticity of degrader-bridged ternary complex.
The amount of cellular HDAC6 was measured in response to concentrations of compounds from 0.1 nM to 1 μM. […] The new degraders had single-digit nanomolar DC50, which was about 3 to 5 fold of improvement from 9.12 nM of degrader 1. […] As discussed above, most PROTACs were designed to avoid degrading other proteins except the targeted POIs. However, in these studies, it was hypothesized that HDAC6 degraders with IKZF degradation will have enhanced anti-proliferation effect MM1S cells.
MM1S cells were harvested and plated with 5×10^5 cells in 100 μL media per well 96-wells plate. After overnight seeding, 25 μL media containing 5× dosing concentration of the compounds or vehicle was added to each well. After 6-hour treatment at 37° C. in a humidified 5% CO2 atmosphere, cells were fixed by adding 125 μL 8% formaldehyde in TBS buffer (137 mM NaCl, 25 mM Tris, 2.7 mM potassium chloride, pH 7.6) and incubated at room temperature (RT) for 15 minutes. Removal of fixing solution was followed by once rinse and twice washes with TBS-T washing buffer (137 mM NaCl, 20 mM Tris, 0.1% Tween, pH 7.6). Cells were then permeabilized by adding 100 μL 0.1% Triton-X in TBS and incubated at RT for 15 minutes. Removal of permeabilizing solution was followed by once rinse and once wash with TBS-T. Cellular endogenous peroxidases were quenched by adding 100 μL 1% H2O2 in TBS and incubation at RT for 20 minutes. Removal of quenching solution was followed by once rinse and once wash with TBS-T. Non-specific binding sites were blocked by adding […] 5% BSA in TBS-T (with 0.02% NaN3) and incubation at 4° C. overnight. […]

Where [1] appears, read: MM1.S, 10 nM, 100% minus mean (± SD) relative HDAC6 expression.
[2] abbreviates: MM1.S, 100 nM, 100% minus mean (± SD) relative HDAC6 expression.

Structures are written as SMILES.

In the case of `CCCCN(Cc1ccc(C(=O)NO)cc1)C(=O)Nc1ccc(OCCCn2cc(CCCNc3cccc4c3C(=O)N(C3CCC(=O)NC3=O)C4=O)nn2)cc1` (stereo not shown) [Compound 12j, 4-((1-butyl-3-(4-(3-(4-(3-((2-(2,6-dioxopiperidin-3-yl)-1,3-dioxoisoindolin-4-yl)amino)propyl)-1H-1,2,3-triazol-1-yl)propoxy)phenyl)ureido)methyl)-N-hydroxybenzamide], the inhibition at 0.01 µM under setting [1] amounted to 45.6 ± 1.6%. Moreover, the inhibition at 0.1 µM under setting [2] turned out to be 77.3 ± 1.5%.
The like results for `CCCCN(Cc1ccc(C(=O)NO)cc1)C(=O)Nc1ccc(OCCCCCCn2cc(CNc3ccc4c(c3)C(=O)N(C3CCC(=O)NC3=O)C4=O)nn2)cc1` (stereo not shown) [Compound 12p, 4-((1-butyl-3-(4-((6-(4-(((2-(2,6-dioxopiperidin-3-yl)-1,3-dioxoisoindolin-5-yl)amino)methyl)-1H-1,2,3-triazol-1-yl)hexyl)oxy)phenyl)ureido)methyl)-N-hydroxybenzamide] were, in that order, approximately 70% and 83.5 ± 0.5%.
Turning to `CCCCN(Cc1ccc(C(=O)NO)cc1)C(=O)Nc1ccc(OCCCCn2cc(CNc3cccc4c3C(=O)N(C3CCC(=O)NC3=O)C4=O)nn2)cc1` (stereo not shown) [Compound 12n, 4-((1-butyl-3-(4-(4-(4-(((2-(2,6-dioxopiperidin-3-yl)-1,3-dioxoisoindolin-4-yl)amino)methyl)-1H-1,2,3-triazol-1-yl)butoxy)phenyl)ureido)methyl)-N-hydroxybenzamide], the “Degradation (%) 10 nM” value (10 nM, 100% minus mean (± SD) relative HDAC6 expression, n=3) is reported as 63.3 ± 0.8%. In addition, the “Degradation (%) 100 nM” value (100 nM, 100% minus mean (± SD) relative HDAC6 expression, n=3) is 80.9 ± 0.4%.
In the case of `CCCCN(Cc1ccc(C(=O)NO)cc1)C(=O)Nc1ccc(OCCCCn2cc(CCCNc3cccc4c3C(=O)N(C3CCC(=O)NC3=O)C4=O)nn2)cc1` (stereo not shown) [Compound 12k, 4-((1-butyl-3-(4-(4-(4-(3-((2-(2,6-dioxopiperidin-3-yl)-1,3-dioxoisoindolin-4-yl)amino)propyl)-1H-1,2,3-triazol-1-yl)butoxy)phenyl)ureido)methyl)-N-hydroxybenzamide], under setting [1], the inhibition at 0.01 µM is 50.9 ± 2.2%. Besides, under setting [2], the inhibition at 0.1 µM was determined as 75.7 ± 0.8%.
Taken in the same sequence, the figures for `CCCCN(Cc1ccc(C(=O)NO)cc1)C(=O)Nc1ccc(OCCCn2cc(CCNc3cccc4c3C(=O)N(C3CCC(=O)NC3=O)C4=O)nn2)cc1` (stereo not shown) [Compound 12g, 4-((1-butyl-3-(4-(3-(4-(2-((2-(2,6-dioxopiperidin-3-yl)-1,3-dioxoisoindolin-4-yl)amino)ethyl)-1H-1,2,3-triazol-1-yl)propoxy)phenyl)ureido)methyl)-N-hydroxybenzamide] were 64.8 ± 1% and 84.2 ± 0.4%.
The like results for `CCCCN(Cc1ccc(C(=O)NO)cc1)C(=O)Nc1ccc(OCCCn2cc(CNc3cccc4c3C(=O)N(C3CCC(=O)NC3=O)C4=O)nn2)cc1` (stereo not shown) [Compound 12b, 4-((1-butyl-3-(4-(3-(4-(((2-(2,6-dioxopiperidin-3-yl)-1,3-dioxoisoindolin-4-yl)amino)methyl)-1H-1,2,3-triazol-1-yl)propoxy)phenyl)ureido)methyl)-N-hydroxybenzamide] were, in that order, 67.3 ± 0.8% and 84.1%.
Turning to `CCCCN(Cc1ccc(C(=O)NO)cc1)C(=O)Nc1ccc(OCCCn2cc(CCCNc3ccc4c(c3)C(=O)N(C3CCC(=O)NC3=O)C4=O)nn2)cc1` (stereo not shown) [Compound 12r, 4-((1-butyl-3-(4-(3-(4-(3-((2-(2,6-dioxopiperidin-3-yl)-1,3-dioxoisoindolin-5-yl)amino)propyl)-1H-1,2,3-triazol-1-yl)propoxy)phenyl)ureido)methyl)-N-hydroxybenzamide], the inhibition at 0.01 µM under setting [1] amounted to 60.9 ± 0.4%. Further, the inhibition at 0.1 µM under setting [2] came out at 81.9 ± 0.4%.
For the setting “0.1 nM to 1 μM, nonlinear fit, ± SD”, `CCCCN(Cc1ccc(C(=O)NO)cc1)C(=O)Nc1ccc(OCCn2cc(CNc3cccc4c3C(=O)N(C3CCC(=O)NC3=O)C4=O)nn2)cc1` (stereo not shown) [Compound 12a, 4-((1-butyl-3-(4-(2-(4-(((2-(2,6-dioxopiperidin-3-yl)-1,3-dioxoisoindolin-4-yl)amino)methyl)-1H-1,2,3-triazol-1-yl)ethoxy)phenyl)ureido)methyl)-N-hydroxybenzamide] had a DC50 of 3.41 ± 0.52 nM. Moreover, where the note is “MM1.S, 0.1 nM to 1 μM, nonlinear fit, ± SD, read-out: Dmax (Vehicle %)”, the Dmax worked out at 88 ± 2.23%. Besides, the inhibition at 0.01 µM under setting [1] amounted to 62.1 ± 1%. The inhibition at 0.1 µM under setting [2] is 81.3 ± 2.3%.
For `CCCCN(Cc1ccc(C(=O)NO)cc1)C(=O)Nc1ccc(OCCCCCn2cc(CNc3ccc4c(c3)C(=O)N(C3CCC(=O)NC3=O)C4=O)nn2)cc1` (stereo not shown) [Compound 12o, 4-((1-butyl-3-(4-((5-(4-(((2-(2,6-dioxopiperidin-3-yl)-1,3-dioxoisoindolin-5-yl)amino)methyl)-1H-1,2,3-triazol-1-yl)pentyl)oxy)phenyl)ureido)methyl)-N-hydroxybenzamide], under setting [1], the inhibition at 0.01 µM is approximately 70%. For the same compound, under setting [2], the inhibition at 0.1 µM was 84.7 ± 1%.
Taken in the same sequence, the figures for `CCCCN(Cc1ccc(C(=O)NO)cc1)C(=O)Nc1ccc(OCCCCCCn2cc(CNc3cccc4c3C(=O)N(C3CCC(=O)NC3=O)C4=O)nn2)cc1` (stereo not shown) [Compound 12e, 4-((1-butyl-3-(4-((6-(4-(((2-(2,6-dioxopiperidin-3-yl)-1,3-dioxoisoindolin-4-yl)amino)methyl)-1H-1,2,3-triazol-1-yl)hexyl)oxy)phenyl)ureido)methyl)-N-hydroxybenzamide] were 66.1 ± 1.1% and 77.8 ± 1.7%.
